Assay results reported in patent EP0203488A2, “7-Azolyl-1-cyclopropyl-1,4-dihydro-4-oxo-3-quinoline carboxylic acids and 1,8-naphthyridine carboxylic acids, process for their preparation and bactericidal agents containing them” (BAYER AG, priority 1985, dated 1986).
In brackets after ≈: the same amount, converted by molar mass.

Key:
Assay in all cases: Agar dilution test (Isosensitest medium), MIC
Format in all cases: cell-based
[1] = test system: E.coli Neum.; settings: Escherichia coli, Agardilutionstest / Isosensitestmedium, read-out: MHK-Werte
From the text: (§1) In der nachstehenden Tabelle sind die MHK-Werte einiger der erfindungsgemäßen Verbindungen im Vergleich zu Ciprofloxacin angegeben.

[2] = test system: E.coli T 7; settings: Escherichia coli, T7, Agardilutionstest / Isosensitestmedium, read-out: MHK-Werte
From the text: as §1

[3] = test system: Klebsiella pneum. 63; settings: Agardilutionstest / Isosensitestmedium, read-out: MHK-Werte
From the text: as §1

[4] = test system: Klebsiella pneum. 8085; settings: Agardilutionstest / Isosensitestmedium, read-out: MHK-Werte
From the text: as §1

[5] = test system: Proteus vulg. 1017; settings: Agardilutionstest / Isosensitestmedium, read-out: MHK-Werte
From the text: as §1

[6] = test system: Pseudom.aerug.Ellsw.; settings: Agardilutionstest / Isosensitestmedium, read-out: MHK-Werte
From the text: as §1

[7] = test system: Staph. aur. 133; settings: Agardilutionstest / Isosensitestmedium, read-out: MHK-Werte
From the text: as §1

[8] = test system: Staph. aur. 1756; settings: Agardilutionstest / Isosensitestmedium, read-out: MHK-Werte
From the text: as §1

[9] = test system: Staph. aur. FK 422; settings: Agardilutionstest / Isosensitestmedium, read-out: MHK-Werte
From the text: as §1

[10] = test system: Streptococcus faec.27101; settings: Agardilutionstest / Isosensitestmedium, read-out: MHK-Werte
From the text: as §1

SMILES | MIC [1] | MIC [2] | MIC [3] | MIC [4] | MIC [5] | MIC [6] | MIC [7] | MIC [8] | MIC [9] | MIC [10]
O=C(O)c1cn(C2CC2)c2c(F)c(-n3ccnc3)c(F)cc2c1=O [Beispiel 21, 1-Cyclopropyl-6,8-difluor-1,4-dihydro-7-(1-imidazolyl)-4-oxo-3-chinolincarbonsäure] | 0.03 µg/mL (≈ 0.0906 µM) | 0.03 µg/mL (≈ 0.0906 µM) | 0.06 µg/mL (≈ 0.181 µM) | 0.03 µg/mL (≈ 0.0906 µM) | 0.125 µg/mL (≈ 0.377 µM) | 0.25 µg/mL (≈ 0.755 µM) | 0.125 µg/mL (≈ 0.377 µM) | 0.125 µg/mL (≈ 0.377 µM) | 0.125 µg/mL (≈ 0.377 µM) | 0.5 µg/mL (≈ 1.51 µM)
CCn1cc(C(=O)O)c(=O)c2cc(F)c(-n3ccnc3)c(F)c21 [EP 115 049, 1-Ethyl-6,8-difluor-1,4-dihydro-7-(1-imidazolyl)-4-oxo-3-chinolincarbonsäure, reference compound] | 0.125 µg/mL (≈ 0.392 µM) | 0.125 µg/mL (≈ 0.392 µM) | 0.5 µg/mL (≈ 1.57 µM) | 0.25 µg/mL (≈ 0.783 µM) | 0.5 µg/mL (≈ 1.57 µM) | 1 µg/mL (≈ 3.13 µM) | 1 µg/mL (≈ 3.13 µM) | 1 µg/mL (≈ 3.13 µM) | 0.5 µg/mL (≈ 1.57 µM) | 2 µg/mL (≈ 6.26 µM)
O=C(O)c1cn(C2CC2)c2cc(-n3cccc3)c(F)cc2c1=O [Beispiel 1, 1-Cyclopropyl-6-fluor-1,4-dihydro-4-oxo-7-(1-pyrrolyl)-3-chino-lincarbonsäure] | 0.06 µg/mL (≈ 0.192 µM) | 0.06 µg/mL (≈ 0.192 µM) | 0.125 µg/mL (≈ 0.4 µM) | 0.06 µg/mL (≈ 0.192 µM) | 0.25 µg/mL (≈ 0.801 µM) | 0.5 µg/mL (≈ 1.6 µM) | 0.03 µg/mL (≈ 0.0961 µM) | 0.03 µg/mL (≈ 0.0961 µM) | 0.03 µg/mL (≈ 0.0961 µM) | 0.25 µg/mL (≈ 0.801 µM)
O=C(O)c1cn(C2CC2)c2c(F)c(-n3cccc3)c(F)cc2c1=O [Beispiel 2, 1-Cyclopropyl-6,8-difluor-1,4-dihydro-4-oxo-7-(1-pyrrolyl)-3-chinolincarbon-säure] | 0.25 µg/mL (≈ 0.757 µM) | 0.125 µg/mL (≈ 0.378 µM) | 0.5 µg/mL (≈ 1.51 µM) | 0.125 µg/mL (≈ 0.378 µM) | 0.5 µg/mL (≈ 1.51 µM) | 1 µg/mL (≈ 3.03 µM) | 0.06 µg/mL (≈ 0.182 µM) | 0.06 µg/mL (≈ 0.182 µM) | 0.06 µg/mL (≈ 0.182 µM) | 0.25 µg/mL (≈ 0.757 µM)
O=C(O)c1cn(C2CC2)c2c(Cl)c(-n3ccnc3)c(F)cc2c1=O [Beispiel 20, 8-Chlor-1-cyclopropyl-6-fluor-1,4-dihydro-7-(1-imidazolyl)-4-oxo-3-chinolincarbonsäure] | 0.03 µg/mL (≈ 0.0863 µM) | 0.03 µg/mL (≈ 0.0863 µM) | 0.25 µg/mL (≈ 0.719 µM) | 0.03 µg/mL (≈ 0.0863 µM) | 0.25 µg/mL (≈ 0.719 µM) | 0.5 µg/mL (≈ 1.44 µM) | 0.03 µg/mL (≈ 0.0863 µM) | 0.03 µg/mL (≈ 0.0863 µM) | 0.03 µg/mL (≈ 0.0863 µM) | 0.125 µg/mL (≈ 0.359 µM)
